Test results published in patent US9233964B2, “Sulfamide piperazine derivatives as protein tyrosine kinase inhibitors and pharmaceutical use therof” (LEO PHARMA A/S, priority 2011, dated 2016).

Key:
Format in all cases: biochemical
[1] = target: T1, JAK3 (Homo sapiens, UniProt P52333); assay: JAK kinase assay (HTRF, phosphorylation of synthetic peptide), JAK3; details: catalytic domain, ATP at Km (2 μM); read-out: JAK3 kinase inhibitory activity (EC50)
T1 construct: All four purified enzymes contain only the catalytic domain; His (N); purchased Carna Biosciences, Inc; host or cells: baculovirus expression system
T1 sequence (P52333 822-1111 limits assumed): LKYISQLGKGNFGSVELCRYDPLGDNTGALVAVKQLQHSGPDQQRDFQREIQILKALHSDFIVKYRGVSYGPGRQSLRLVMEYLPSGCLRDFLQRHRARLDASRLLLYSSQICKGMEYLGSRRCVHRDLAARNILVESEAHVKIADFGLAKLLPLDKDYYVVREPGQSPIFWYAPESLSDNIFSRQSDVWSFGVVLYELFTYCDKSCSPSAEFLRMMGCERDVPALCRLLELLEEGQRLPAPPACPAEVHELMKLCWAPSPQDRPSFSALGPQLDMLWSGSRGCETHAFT

[2] = target: T2, JAK2 (Homo sapiens, UniProt O60674); assay: JAK kinase assay (HTRF, phosphorylation of synthetic peptide), JAK2; details: catalytic domain, ATP at Km (4 μM); read-out: JAK2 kinase inhibitory activity (EC50)
T2 construct: All four purified enzymes contain only the catalytic domain; His (N); purchased Carna Biosciences, Inc; host or cells: baculovirus expression system
T2 sequence (O60674 849-1124 limits assumed): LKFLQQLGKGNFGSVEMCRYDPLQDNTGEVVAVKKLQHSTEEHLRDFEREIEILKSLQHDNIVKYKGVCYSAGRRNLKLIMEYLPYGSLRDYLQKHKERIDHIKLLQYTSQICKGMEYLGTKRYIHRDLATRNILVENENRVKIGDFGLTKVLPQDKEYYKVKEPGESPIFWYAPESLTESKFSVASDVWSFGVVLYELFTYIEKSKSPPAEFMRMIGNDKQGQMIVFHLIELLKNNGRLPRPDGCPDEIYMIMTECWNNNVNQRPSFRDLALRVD
How it was run: (§1)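 Catalytic-domain human JAK1 (GST-tagged, aa 850-1154) or His-tagged JAK2, baculovirus-expressed, phosphorylated 1 µM biotinylated TK peptide at Km ATP (JAK1 7 µM, 10 mM MgCl2, 50 nM SEB; JAK2 4 µM, 5 mM MgCl2) in pH 7.0 Hepes, 20-30 min RT. EDTA stop; overnight streptavidin-XL665/cryptate HTRF read.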

[3] = target: T3, JAK1 (Homo sapiens, UniProt P23458); assay: JAK kinase assay (HTRF, phosphorylation of synthetic peptide), JAK1; details: catalytic domain, ATP at Km (7 μM); read-out: JAK1 kinase inhibitory activity (EC50)
T3 construct: JAK1 (aa 850-1154) and TYK2 (aa 871-1187) are expressed with an N-terminally fused GST-tag; GST (N); purchased Carna Biosciences, Inc; host or cells: baculovirus expression system
T3 sequence (P23458 850-1154): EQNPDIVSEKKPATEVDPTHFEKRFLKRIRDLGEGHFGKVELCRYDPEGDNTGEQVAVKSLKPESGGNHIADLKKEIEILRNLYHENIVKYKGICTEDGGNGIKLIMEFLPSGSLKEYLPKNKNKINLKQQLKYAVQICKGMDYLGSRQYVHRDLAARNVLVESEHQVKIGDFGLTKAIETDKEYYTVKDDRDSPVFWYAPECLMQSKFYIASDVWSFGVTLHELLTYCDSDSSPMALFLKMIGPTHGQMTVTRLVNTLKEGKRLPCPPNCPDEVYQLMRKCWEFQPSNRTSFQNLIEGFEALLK
How it was run: as §1

[4] = target: T4, TYK2 (Homo sapiens, UniProt P29597); assay: JAK kinase assay (HTRF, phosphorylation of synthetic peptide), TYK2; details: catalytic domain, ATP at Km (13 μM); read-out: TYK2 kinase inhibitory activity (EC50)
T4 construct: JAK1 (aa 850-1154) and TYK2 (aa 871-1187) are expressed with an N-terminally fused GST-tag; GST (N); purchased Carna Biosciences, Inc; host or cells: baculovirus expression system
T4 sequence (P29597 871-1187): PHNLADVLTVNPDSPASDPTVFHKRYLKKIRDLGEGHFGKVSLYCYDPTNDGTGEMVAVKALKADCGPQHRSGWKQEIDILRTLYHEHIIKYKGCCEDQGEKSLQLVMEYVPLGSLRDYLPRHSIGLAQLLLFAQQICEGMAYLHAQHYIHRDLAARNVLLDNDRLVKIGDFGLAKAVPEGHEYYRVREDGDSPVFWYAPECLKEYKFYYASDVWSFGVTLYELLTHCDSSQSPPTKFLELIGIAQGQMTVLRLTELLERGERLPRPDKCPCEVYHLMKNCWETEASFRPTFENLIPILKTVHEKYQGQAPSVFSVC
How it was run: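 1 µM biotinylated TK peptide at Km ATP in pH 7.0 Hepes, 20-30 min RT. EDTA stop; overnight streptavidin-XL665/cryptate HTRF read.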

Row | Compound | EC50 [1] | EC50 [2] | EC50 [3] | EC50 [4]
1 | CN(C[C@@H]1CC(F)(F)CN1C(=O)CCO)S(=O)(=O)N1CCN(c2ncnc3[nH]ccc23)CC12CC2 [Example 155, N-[[(2S)-4,4-difluoro-1-(3-hydroxypropanoyl)pyrrolidin-2-yl]methyl]-N-methyl-5-(7H-pyrrolo[2,3-d]pyrimidin-4-yl)-5,8-diazaspiro[2.5]octane-8-sulfonamide] | < 100 nM | < 100 nM | < 100 nM | < 100 nM
2 | CC(C#N)N(C1CCC1)S(=O)(=O)N1CCN(c2ncnc3[nH]ccc23)CC12CC2 (centres unmarked) [Example 107, N-(1-cyanoethyl)-N-cyclobutyl-5-(7H-pyrrolo[2,3-d]pyrimidin-4-yl)-5,8-diazaspiro[2.5]octane-8-sulfonamide] | < 100 nM | < 100 nM | < 100 nM | 100 to 500 nM
3 | Cc1noc(C)c1CCN(C)S(=O)(=O)N1CCN(c2ncnc3[nH]ccc23)CC12CC2 [Example 32, 7-(7H-Pyrrolo[2,3-d]pyrimidin-4-yl)-4,7-diaza-spiro[2.5]octane-4-sulfonic acid [2-(3,5-dimethyl-isoxazol-4-yl)-ethyl]-methyl-amide] | < 100 nM | < 100 nM | < 100 nM | 100 to 500 nM
4 | CN(CCn1cccc1)S(=O)(=O)N1CCN(c2ncnc3[nH]ccc23)CC12CC2 [Example 26, 7-(7H-Pyrrolo[2,3-d]pyrimidin-4-yl)-4,7-diaza-spiro[2.5]octane-4-sulfonic acid methyl-(2-pyrrol-1-yl-ethyl)-amide] | < 100 nM | < 100 nM | < 100 nM | < 100 nM
5 | O=CNS(=O)(=O)N1CCN(c2ncnc3[nH]ccc23)CC12CC2 [Example 176, N-[[5-(7H-pyrrolo[2,3-d]pyrimidin-4-yl)-5,8-diazaspiro[2.5]octan-8-yl]sulfonyl]formamide] | 100 to 500 nM | < 100 nM | < 100 nM | > 500 nM
6 | CC(C#N)N(C1COC1)S(=O)(=O)N1CCN(c2ncnc3[nH]ccc23)CC12CC2 (centres unmarked) [Example 117, N-(1-cyanoethyl)-N-(oxetan-3-yl)-5-(7H-pyrrolo[2,3-d]pyrimidin-4-yl)-5,8-diazaspiro[2.5]octane-8-sulfonamide] | < 100 nM | < 100 nM | < 100 nM | 100 to 500 nM
7 | CN(C1CN(S(C)(=O)=O)C1)S(=O)(=O)N1CCN(c2ncnc3[nH]ccc23)CC12CC2 [Example 180, N-methyl-N-(1-methylsulfonylazetidin-3-yl)-5-(7H-pyrrolo[2,3-d]pyrimidin-4-yl)-5,8-diazaspiro[2.5]octane-8-sulfonamide] | < 100 nM | < 100 nM | < 100 nM | < 100 nM
8 | CN(CC1CCN(S(C)(=O)=O)CC1)S(=O)(=O)N1CCN(c2ncnc3[nH]ccc23)CC12CC2 [Example 158, N-methyl-N-[(1-methylsulfonyl-4-piperidyl)methyl]-5-(7H-pyrrolo[2,3-d]pyrimidin-4-yl)-5,8-diazaspiro[2.5]octane-8-sulfonamide] | < 100 nM | < 100 nM | < 100 nM | 100 to 500 nM
9 | O=S(=O)(NC1CCCC1)N1CCN(c2ncnc3[nH]ccc23)CC12CC2 [Example 144, N-cyclopentyl-5-(7H-pyrrolo[2,3-d]pyrimidin-4-yl)-5,8-diazaspiro[2.5]octane-8-sulfonamide] | 100 to 500 nM | < 100 nM | < 100 nM | 100 to 500 nM
10 | CN(C[C@@H]1CC(F)(F)CN1S(=O)(=O)CCCC#N)S(=O)(=O)N1CCN(c2ncnc3[nH]ccc23)CC12CC2 [Example 163, N-[[(2S)-1-(3-cyanopropylsulfonyl)-4,4-difluoro-pyrrolidin-2-yl]methyl]-N-methyl-5-(7H-pyrrolo[2,3-d]pyrimidin-4-yl)-5,8-diazaspiro[2.5]octane-8-sulfonamide] | < 100 nM | < 100 nM | < 100 nM | < 100 nM
11 | CCC(=O)N1CCC(CN(C)S(=O)(=O)N2CCN(c3ncnc4[nH]ccc34)CC23CC3)C1 (centres unmarked) [Example 125, N-methyl-N-[(1-propanoylpyrrolidin-3-yl)methyl]-5-(7H-pyrrolo[2,3-d]pyrimidin-4-yl)-5,8-diazaspiro[2.5]octane-8-sulfonamide] | 100 to 500 nM | < 100 nM | < 100 nM | > 500 nM
12 | CN(CCc1ccccc1)S(=O)(=O)N1CCN(c2ncnc3[nH]ccc23)CC12CC2 [Example 58, 7-(7H-Pyrrolo[2,3-d]pyrimidin-4-yl)-4,7-diaza-spiro[2.5]octane-4-sulfonic acid methyl-phenethyl-amide] | < 100 nM | < 100 nM | < 100 nM | 100 to 500 nM
13 | CC(CN(C)S(=O)(=O)N1CCN(c2ncnc3[nH]ccc23)CC12CC2)c1ccccc1 (centres unmarked) [Example 63, N-methyl-N-(2-phenylpropyl)-5-(7H-pyrrolo[2,3-d]pyrimidin-4-yl)-5,8-diazaspiro[2.5]octane-8-sulfonamide] | < 100 nM | < 100 nM | < 100 nM | 100 to 500 nM
14 | CN(C1CN(C(=O)CO)C1)S(=O)(=O)N1CCN(c2ncnc3[nH]ccc23)CC12CC2 [Example 178, N-[1-(2-hydroxyacetyl)azetidin-3-yl]-N-methyl-5-(7H-pyrrolo[2,3-d]pyrimidin-4-yl)-5,8-diazaspiro[2.5]octane-8-sulfonamide] | < 100 nM | < 100 nM | < 100 nM | 100 to 500 nM
15 | CN(C[C@@H]1CCCN1C(=O)CO)S(=O)(=O)N1CCN(c2ncnc3[nH]ccc23)CC12CC2 [Example 192, N-[[(2S)-1-(2-hydroxyacetyl)pyrrolidin-2-yl]methyl]-N-methyl-5-(7H-pyrrolo[2,3-d]pyrimidin-4-yl)-5,8-diazaspiro[2.5]octane-8-sulfonamide] | < 100 nM | < 100 nM | < 100 nM | < 100 nM
16 | CC(C)(C)OC(=O)NS(=O)(=O)N1CCN(c2ncnc3[nH]ccc23)CC12CC2 [Int 53] | < 100 nM | < 100 nM | < 100 nM | > 500 nM
17 | COc1ccc(/C=N\S(=O)(=O)N2CCN(c3ncnc4[nH]ccc34)CC23CC3)cc1 [Int 49] | < 100 nM | < 100 nM | < 100 nM | 100 to 500 nM
18 | CN(CCc1ccc(F)cc1)S(=O)(=O)N1CCN(c2ncnc3[nH]ccc23)CC12CC2 [Example 16, 7-(7H-Pyrrolo[2,3-d]pyrimidin-4-yl)-4,7-diaza-spiro[2.5]octane-4-sulfonic acid [2-(4-fluoro-phenyl)-ethyl]-methyl-amide] | < 100 nM | < 100 nM | < 100 nM | 100 to 500 nM
19 | CN(C(=O)CC1CCS(=O)(=O)C1)S(=O)(=O)N1CCN(c2ncnc3[nH]ccc23)CC12CC2 (centres unmarked) [Example 138, 2-(1,1-dioxothiolan-3-yl)-N-methyl-N-[[5-(7H-pyrrolo[2,3-d]pyrimidin-4-yl)-5,8-diazaspiro[2.5]octan-8-yl]sulfonyl]acetamide] | 100 to 500 nM | < 100 nM | < 100 nM | > 500 nM
20 | N#CCN(C1COC1)S(=O)(=O)N1CCN(c2ncnc3[nH]ccc23)CC12CC2 [Example 113, N-(cyanomethyl)-N-(oxetan-3-yl)-5-(7H-pyrrolo[2,3-d]pyrimidin-4-yl)-5,8-diazaspiro[2.5]octane-8-sulfonamide] | < 100 nM | < 100 nM | < 100 nM | < 100 nM
21 | N#CCN(CC1CCS(=O)(=O)C1)S(=O)(=O)N1CCN(c2ncnc3[nH]ccc23)CC12CC2 (centres unmarked) [Example 166, N-(cyanomethyl)-N-[(1,1-dioxothiolan-3-yl)methyl]-5-(7H-pyrrolo[2,3-d]pyrimidin-4-yl)-5,8-diazaspiro[2.5]octane-8-sulfonamide] | < 100 nM | < 100 nM | < 100 nM | < 100 nM
22 | CN(C1CCCC1)S(=O)(=O)N1CCN(c2ncnc3[nH]ccc23)CC12CC2 [Example 61, N-cyclopentyl-N-methyl-5-(7H-pyrrolo[2,3-d]pyrimidin-4-yl)-5,8-diazaspiro[2.5]octane-8-sulfonamide] | < 100 nM | < 100 nM | < 100 nM | 100 to 500 nM
23 | CN(c1ccccc1)S(=O)(=O)N1CCN(c2ncnc3[nH]ccc23)CC12CC2 [Example 40, 7-(7H-Pyrrolo[2,3-d]pyrimidin-4-yl)-4,7-diaza-spiro[2.5]octane-4-sulfonic acid methyl-phenyl-amide] | 100 to 500 nM | < 100 nM | < 100 nM | 100 to 500 nM
